Measured values taken from ChEMBL document CHEMBL6120963, “Discovery of Novel PROTAC SIRT6 Degraders with Potent Efficacy against Hepatocellular Carcinoma” (J Med Chem, 2024).
The source made the active and inactive calls. No cut-off for these calls is given here.

How the values were obtained:
[1] = target: T1, Protein cereblon/NAD-dependent protein deacylase sirtuin-6 (Homo sapiens, UniProt Q8N6T7+Q96SW2); test: PROTAC activity at CRBN/SIRT6 in human SK-HEP1 cells assessed as induction of SIRT6 degradation upto 10 uM incubated for 36 hrs by Western blot analysis relative to control; type: cell-based
Target sequence in this assay (Q8N6T7 2-355 limits assumed): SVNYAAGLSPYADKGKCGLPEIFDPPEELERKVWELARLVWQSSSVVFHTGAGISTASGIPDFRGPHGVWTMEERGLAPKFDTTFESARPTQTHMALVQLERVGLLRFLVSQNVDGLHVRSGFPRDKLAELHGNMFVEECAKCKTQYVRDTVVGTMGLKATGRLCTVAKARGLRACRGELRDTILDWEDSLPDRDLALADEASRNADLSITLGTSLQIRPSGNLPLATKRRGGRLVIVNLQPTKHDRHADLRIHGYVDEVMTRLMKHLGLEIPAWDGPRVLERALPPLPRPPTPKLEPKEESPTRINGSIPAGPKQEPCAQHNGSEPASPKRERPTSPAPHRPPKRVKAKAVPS
Target sequence in this assay (Q96SW2 whole entry partner): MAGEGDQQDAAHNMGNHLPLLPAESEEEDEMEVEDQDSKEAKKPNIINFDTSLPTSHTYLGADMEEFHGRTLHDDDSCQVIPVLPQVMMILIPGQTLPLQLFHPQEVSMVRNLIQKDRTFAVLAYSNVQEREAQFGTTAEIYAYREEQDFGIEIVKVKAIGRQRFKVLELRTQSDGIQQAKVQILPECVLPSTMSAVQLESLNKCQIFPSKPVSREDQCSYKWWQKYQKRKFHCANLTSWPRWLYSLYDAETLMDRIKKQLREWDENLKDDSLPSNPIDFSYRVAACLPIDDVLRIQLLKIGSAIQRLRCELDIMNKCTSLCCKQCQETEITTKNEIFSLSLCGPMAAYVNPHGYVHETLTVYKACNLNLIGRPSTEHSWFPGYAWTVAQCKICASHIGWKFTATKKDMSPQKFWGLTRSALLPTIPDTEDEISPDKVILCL

SK-HEP1 [2] = test: Effect of FN1 mRNA expression in human SK-HEP1 cells at 2.5 uM incubated for 36 hrs by RNA sequencing analysis; type: functional, cell-based
SK-HEP1 [3] = test: Effect of genes related to DNA replication in human SK-HEP1 cells at 2.5 uM incubated for 36 hrs by GSEA analysis; type: functional, cell-based
SK-HEP1 [4] = test: Cytotoxicity against human SK-HEP1 cells incubated for 72 hrs by CCK8 assay; type: functional, cell-based; conditions: SK-HEP1, 72 h
SK-HEP1 [5] = test: Effect on H3K56Ac expression in human SK-HEP1 cells at 0.002 to 1 uM incubated for 36 hrs by Western blot analysis; type: functional, cell-based; conditions: dose 0.002-1 µM
[6] = target: T1, Protein cereblon/NAD-dependent protein deacylase sirtuin-6; test: PROTAC activity at CRBN/SIRT6 in human Hep3B cells assessed as induction of SIRT6 degradation incubated for 24 hrs by Western blot analysis; type: cell-based
Target sequence in this assay (Q8N6T7 2-355 limits assumed): as the sequence (Q8N6T7 2-355 limits assumed) above
Target sequence in this assay (Q96SW2 whole entry partner): as the sequence (Q96SW2 whole entry partner) above

[7] = target: T1, Protein cereblon/NAD-dependent protein deacylase sirtuin-6; test: PROTAC activity at CRBN/SIRT6 in human SK-HEP1 cells assessed as impairment in CHD4 foci formation by immunofluorescence based analysis; type: cell-based
Target sequence in this assay (Q8N6T7 2-355 limits assumed): as the sequence (Q8N6T7 2-355 limits assumed) above
Target sequence in this assay (Q96SW2 whole entry partner): as the sequence (Q96SW2 whole entry partner) above

SK-HEP1 [8] = test: Downregulation of NAIF1 expression in human SK-HEP1 cells at 2.5 uM incubated for 36 hrs; type: functional, cell-based
[9] = target: T1, Protein cereblon/NAD-dependent protein deacylase sirtuin-6; test: PROTAC activity at CRBN/SIRT6 in human Huh-7 cells assessed as induction of SIRT6 degradation incubated for 36 hrs by Western blot analysis; type: cell-based
[10] = target: T1, Protein cereblon/NAD-dependent protein deacylase sirtuin-6; test: PROTAC activity at CRBN/SIRT6 in human SK-HEP1 cells assessed as impairment in gamma-H2AX foci formation by immunofluorescence based analysis; type: cell-based
Target sequence in this assay (Q8N6T7 2-355 limits assumed): as the sequence (Q8N6T7 2-355 limits assumed) above
Target sequence in this assay (Q96SW2 whole entry partner): as the sequence (Q96SW2 whole entry partner) above

SK-HEP1 [11] = test: Effect of H2BC21 mRNA expression in human SK-HEP1 cells at 2.5 uM incubated for 36 hrs by RNA sequencing analysis; type: functional, cell-based
SK-HEP1 [12] = test: Effect of GBX2 mRNA expression in human SK-HEP1 cells at 2.5 uM incubated for 36 hrs by RNA sequencing analysis; type: functional, cell-based
SK-HEP1 [13] = test: Induction of apoptosis in human SK-HEP1 cells assessed as rate of apoptotic cells at 10 uM incubated for 72 hrs by Annexin V-FITC/PI staining based flow cytometry relative to control; type: functional
[14] = target: T1, Protein cereblon/NAD-dependent protein deacylase sirtuin-6; test: PROTAC activity at CRBN/SIRT6 in MLN4924-treated human SK-HEP1 cells assessed as induction of SIRT6 degradation at 2.5 uM treated for 36 hrs by Western blot analysis; type: cell-based
Target sequence in this assay (Q8N6T7 2-355 limits assumed): as the sequence (Q8N6T7 2-355 limits assumed) above
Target sequence in this assay (Q96SW2 whole entry partner): as the sequence (Q96SW2 whole entry partner) above

[15] = target: T1, Protein cereblon/NAD-dependent protein deacylase sirtuin-6; test: PROTAC activity at CRBN/SIRT6 in human Huh-7 cells assessed as induction of SIRT6 degradation at 1 uM incubated for 24 hrs by Western blot analysis; type: cell-based
Target sequence in this assay (Q8N6T7 2-355 limits assumed): as the sequence (Q8N6T7 2-355 limits assumed) above
Target sequence in this assay (Q96SW2 whole entry partner): as the sequence (Q96SW2 whole entry partner) above

SK-HEP1 [16] = test: Effect on SIRT7 expression in human SK-HEP1 cells at 0.002 to 1 uM incubated for 36 hrs by Western blot analysis; type: functional, cell-based; conditions: dose 0.002-1 µM

Nc1cc(N2CCN(CC3CCN(c4cc5c(cc4F)C(=O)N(C4CCC(=O)NC4=O)C5=O)CC3)CC2)ccc1[N+](=O)[O-] (stereo not drawn)
Emax [1]: > 98%
Activity (SK-HEP1 [2]): Active
Activity (SK-HEP1 [3]): Active
IC50 (SK-HEP1 [4]): 1510 nM
Activity (SK-HEP1 [5]): No effect
Activity [6]: Active; Reached A Plateau After 36 Hrs Of Treatment
Activity [7]: Active
Activity (SK-HEP1 [8]): Active
DC50 [9]: 154 nM
Activity ([9]; dose 0.008-5 µM): Dose-dependent-effect; But Reduced Degradation Efficiency Observed
Activity [10]: Active
Activity (SK-HEP1 [11]): Active
Activity (SK-HEP1 [12]): Active
Activity (SK-HEP1 [13]): Active
Activity (SK-HEP1 [13]; record 2): <=60%
Activity [14]: inactive
Activity [15]: Active; Reached A Plateau After 36 Hrs Of Treatment
Activity (SK-HEP1 [16]): No effect
